In patent US9327023B2, “HER2 targeting agent treatment in non-HER2-amplified cancers having HER2 expressing cancer stem cells” (The Regents of the University of Michigan, priority 2011, dated 2016):
Entries after “also recorded” stand apart in the source; their conditions may differ.

Experiments:
[1] = test system: trastuzumab-sensitive BT474-DsRed xenografts; experiment: BT474-DsRed xenografts; format: in vivo, NOD/SCID mice; conditions: 7-week period, compared to saline
[2] = test system: parental BT474 or SKBR cells; experiment: stimulation with recombinant IL6 or conditioned medium, mesenchymal phenotype and CD44; format: cell-based, human; conditions: 5 days
Text: (§1) The green fluorescent protein (GFP) label in the parental (PTEN wild-type) cells allowed separation by flow cytometry of cell populations following co-culture. Co-culture of parental BT474-GFP cells with BT474-PTEN^−LTT cells increased the percentage of CD44^+/CD24^− CSCs from 0.1% to 60% in parental cells (SEE FIG. 15A). Single GFP-expressing parental BT474 cells were sorted after 3 weeks of co-culture with BT474-PTEN^−LTT and generated multiple colonies. […] To examine the direct role of IL6 in these processes, parental BT474 or SKBR cells were stimulated with recombinant IL6 or conditioned medium (CM) from BT474-PTEN^−LTT cells in the presence or absence of anti-IL6R antibody.

[3] = test system: SUM159-HER2+PTEN- xenografts; experiment: SUM159-HER2+PTEN- trastuzumab-resistant xenografts; conditions: for tumor growth: 8 weeks, perifosine 20 mg/kg twice a week, anti-IL6R 10 mg/kg once a week; for serum human IL6 and IL8 in control and docetaxel-treated mice higher than in treated mice: ELISA; for serum IL6 or IL8 levels: human specific ELISA; for percent of Aldefluor-positive cells in tumors: mouse, in vivo; for body weight: tumor-bearing mice, docetaxel 10 mg/kg once a week
[4] = test system: trastuzumab-resistant BT474-PTEN- xenografts; experiment: BT474-PTEN- xenografts; format: in vivo, NOD/SCID mice; conditions: for secondary tumors and distant metastasis after excision of primary tumors: excised after 8 weeks of treatment, luciferase imaging
Text: Treatments for all early settings were 8 weeks long. […] Drug doses were as described in early setting.
To determine the effects of these treatments on the development of metastasis, we excised primary BT474-PTEN^− tumors after 8 weeks of treatment and assessed subsequent development of local and distant metastasis by luciferase imaging (FIG. 7D).

[5] = test system: IL6, IL8, and CCL5; experiment: cytokine secretion of Sum159-HER2+PTEN- cells, ELISA; format: cell-based, human; conditions: for reduced the levels of these cytokines / secretion of all three cytokines (IL6, IL8, CCL5): Sum159-HER2+PTEN- cells, 1 mM Stat3 Inhibitor VII; for reduced the levels of these cytokines: 5 mM perfosine; for secretion of all three cytokines (IL6, IL8, CCL5): 5 mM Bay11-7082, 5 mM perfosine
Description: The NF-kB transcription factor is involved in the transcription of a number of cytokine genes including IL6, IL8, and CCL5 (Yu et al., 2010; herein incorporated by reference in its entirety). Furthermore, IL6-activated NF-kB signaling is mediated by Stat3 and Akt signaling pathways (Iliopoulos et al., 2009; herein incorporated by reference in its entirety). […] The effect of recombinant cytokines or cytokine-blocking antibodies on cytokine production was determined.

[6] = test system: Sum159 cells; experiment: CD44/CD24 flow cytometry of Sum159 cells; format: cell-based, human; conditions: 5 days
Description: (§2) To measure ALDH activity, the Aldefluor assay was carried out according to manufacturer's guidelines (StemCell Technologies, Inc., Durham, N.C.). Indicated cells were incubated with fluorophore-conjugated CD44 or CD24 antibodies alone or in combination on ice for 30 min, washed with Hank's balanced salt solution (HBSS), and resuspended in DAPI containing HBSS buffer for flow cytometry analyses.
However, there was approximately a 2-fold increase in IL6 secretion when cells were treated for 3 weeks or longer (SEE FIG. 14A). […] The effects of trastuzumab-mediated IL6 production on CSCs were also tested. […] In contrast, downregulation of PTEN in these cells generated a population that contained approximately 10% CD44^+/CD24^− cells (FIG. 14B). […] To determine whether induction of the CSC phenotype was dependent on IL6 production, the effect of addition of IL6 receptor antibody on induction of the CSC phenotype was assessed. […] The ability of the anti-IL6R antibody to affect the CD44^+/CD24^− population in Sum159 cells, which lack the expression of the luminal CD24 marker, was examined. […] This discrepancy may be explained by the existence of different stem cell populations in different breast cancer subtypes.

[7] = test system: BT474-DsRed and BT474-PTEN- cells; experiment: CD44+/CD24- flow cytometry of BT474 cells; format: cell-based, human
Description: as §2
To determine whether induction of the CSC phenotype was dependent on IL6 production, the effect of addition of IL6 receptor antibody on induction of the CSC phenotype was assessed. […] The ability of the anti-IL6R antibody to affect the CD44^+/CD24^− population in Sum159 cells, which lack the expression of the luminal CD24 marker, was examined.

[8] = test system: BT474 cells; experiment: cell growth / viable cells of BT474 cells; format: cell-based, human; conditions: parental BT474 cells
[9] = test system: parental BT474 cells; experiment: co-culture of parental BT474 cells with BT474-PTEN-LTT cells; format: cell-based, human
Text: as §1

[10] = test system: breast CSCs (tumor-initiating cells); experiment: reimplantation assay of residual tumor cells into secondary mice; format: in vivo; conditions: residual tumors from treated mice
Text: One of the hallmarks of CSC model is their ability to initiate tumors in secondary reimplantation assays (Clarke et al., 2006; herein incorporated by reference in its entirety).

[11] = test system: BT474 cells; experiment: tumorspheres in suspension cultures of BT474 cells; format: cell-based, human
Description: Single cells were plated on ultra-low attachment plates at a density of 1×10^5/ml and grown for 7 days in a mammocult medium (Stem Cell Technologies). After the treatment of primary spheres, they were dissociated into single-cell suspension and plated at a density of 5×10^3-1×10^4/ml for the subsequent passages. Secondary spheres were counted after 5-7 days in culture.

[12] = test system: luminal ZR75-1 tumor xenografts; experiment: ZR75-1 xenograft in fat pad, early and late treatment; format: in vivo, NOD/SCID mice; conditions: for growth of established ZR75-1 tumors: late treatment, trastuzumab 4 mg/kg IP twice a week, docetaxel 10 mg/kg IP once a week
Description: (§3) Five-week old NOD/SCID mice from breeding colony, University of Michigan, Harland and Jackson Laboratory were used throughout the experiments. All experiments involving live mice were conducted in accordance with standard operating procedures approved by University Committee on the Use and Care of Animals at the University of Michigan (ULAM). An estrogen pellet was subcutaneously implanted in each mouse with the fat pad injection of MCF7 or ZR75-1 cells. Mice were sacrificed when tumor reached 1-1.2 CM.
(§4) A xenograft model was used to simulate clinical disease in adjuvant (early treatment) and advanced (late treatment) setting. 5 mice per treatment group were used. For adjuvant setting, 50,000 cells of BT474, ZR75-1 and MCF7 were injected into fat pads and began treatment immediately after inoculation. To simulate advanced disease, 1 million cells of BT474, ZR75-1 and MCF7 were inoculated into fat pads and tumors allowed to reach a size of approximately 0.4 cm. Then, treatment described below was initiated and continued along with assessment of tumor growth for 6-week period. Animals were sacrificed right after completion of 6-week treatment and cancer stem cells were analyzed by Aldefluor assay as described previously.
(§5) NOD/SCID mice implanted with luciferase-labeled cells received 6-week of treatment in both advanced and adjuvant setting.
(§6) Fat pad tumor diameter was measured by caliper weekly. Tumor volumes were calculated using the formula: volume=width^2×length/2. Luciferase-labeled tumor growth was monitored at least every 2 weeks using in vivo imaging system (ISVS, Caliper Life Science). Mice were injected with luciferin (Caliper), anesthetized and imaged according to manufacturer's protocols. For photon flux counting, a charge-coupled device camera system (Xenogen) with a nose-cone isofluorane delivery system and heated stage for maintaining body temperature was used. Results were analyzed after 10 minutes of exposure using the Living Image software provided with the Xenogen imaging system.

[13] = test system: HER2 amplified BT474 tumor xenografts; experiment: BT474 xenograft in fat pad, early and late treatment; format: in vivo, NOD/SCID mice; conditions: for growth of established BT474 tumors: late treatment, trastuzumab 4 mg/kg IP twice a week, docetaxel 10 mg/kg IP once a week
Description: as §3, §4, §5, §6

[14] = test system: HER2 expression in MCF7 cells; experiment: co-culture of MCF7 cells with human osteocytes, HER2 expression by flow cytometry; format: cell-based; conditions: MCF7 co-cultured with human osteocytes
Description: Preparation of cells for FACS analysis and sorting was described as followings. Cells were collected and rinsed twice in 1×PBS containing 2% FBS and a fraction of cells were added with human immunoglobulin to identify non-specific binding and use these cells as a gate for negative control. Cells were incubated with appropriate antibody dilution as manufacture's guidelines. The antibody included anti-HER2/neu APC (Biosciences, Cat#340554), anti-HER2/neu PE (Biosciences, Cat#340552).
To simulate the bone microenvironment in vitro, co-culture experiments were performed utilizing MCF7, DsRed labeled with osteocytes generated from human bone mesenchymal stem cells. […] A number of biological effects of the bone microenvironment and mediated by RANK-ligand.

Compound: Tocilizumab [anti-IL6R antibody]
- growth of BT474-DsRed xenografts [1]: little effect
- IL6- or CM-induced mesenchymal phenotype and CD44 expression [2]: able to reverse
- tumor growth [3]: significantly inhibited tumor growth
- serum human IL6 and IL8 in control and docetaxel-treated mice higher than in treated mice [3]: 2 fold
- serum IL6 or IL8 levels [3]: significantly reduced
- percent of Aldefluor-positive cells in tumors [3]: significantly reduced; also recorded: substantial reduction
- growth of BT474-PTEN- xenografts ([4]; early treatment): completely blocked tumor growth
- tumor growth as assessed by tumor weight at sacrifice ([4]; established tumors (late treatment)): completely blocked tumor growth
- secondary tumors and distant metastasis after excision of primary tumors [4]: no distant metastasis detected
- secondary tumors and distant metastasis after excision of primary tumors ([4]; listed as Anti-IL6R antibody): completely inhibited
- serum IL6 levels ([4]; human specific ELISA): lowest levels
- IL6-increased production of all three cytokines ([5]; HER2+PTEN- cells with recombinant IL6): completely inhibited
- reduced the levels of these cytokines [5]: more than 50%
- cell growth [6]: substantial growth arrest
- generation of CD24+ cells [6]: 11%
- CD44+/CD24- CSC population [7]: reduced
- increase in CD44+/CD24- population induced by trastuzumab [7]: completely blocked
- CM- or IL6-conferred resistance to trastuzumab [8]: blocked; also recorded: reversed
- induction of the CD44+/CD24- phenotype ([9]; antibody added at the time of co-culture): inhibited
- CD44+/CD24- phenotype in parental cells ([9]; late treatment): no effect; also recorded: resistant
- frequency of CSCs reduced [10]: more than 50%
- frequency of breast CSCs [10]: significantly lower
- number of tumorspheres induced by CM [11]: reduced

Compound: CCCCCCCCCCCCCCCCCCOP(=O)([O-])OC1CC[N+](C)(C)CC1 [perifosine]
- tumor growth [3]: significantly inhibited tumor growth
- serum human IL6 and IL8 in control and docetaxel-treated mice higher than in treated mice [3]: 2 fold
- serum IL6 or IL8 levels [3]: significantly reduced
- percent of Aldefluor-positive cells in tumors [3]: significantly reduced; also recorded: substantial reduction
- body weight [3]: less body weight loss
- secretion of all three cytokines (IL6, IL8, CCL5) [5]: only partially inhibited
- reduced the levels of these cytokines [5]: 50%

Compound: CC(=O)O[C@@]12CO[C@@H]1C[C@H](O)[C@@]1(C)C(=O)[C@H](O)C3=C(C)[C@@H](OC(=O)[C@H](O)[C@@H](NC(=O)OC(C)(C)C)c4ccccc4)C[C@@](O)([C@@H](OC(=O)c4ccccc4)[C@H]21)C3(C)C [docetaxel]
- serum IL6 or IL8 levels [3]: no significant effect
- percent of Aldefluor-positive cells in tumors [3]: no significant effect; also recorded: no reduction
- body weight [3]: lost body weight
- tumor growth / formation, ZR75-1 ([12]; early (adjuvant) setting): suppressed tumor formation
- growth of established ZR75-1 tumors [12]: reduced tumor growth
- growth of established ZR75-1 tumors ([12]; listed as Docetaxel): highest efficacy to shrink tumors
- tumor growth / formation, BT474 ([13]; early (adjuvant) setting): suppressed tumor formation
- growth of established BT474 tumors [13]: reduced tumor growth
- growth of established BT474 tumors ([13]; listed as Docetaxel): highest efficacy to shrink tumors

Compound: Cc1ccc(S(=O)(=O)/C=C/C#N)cc1 [Bay11-7082]
- secretion of all three cytokines (IL6, IL8, CCL5) [5]: completely inhibited
- secretion of all three cytokines (IL6, IL8, CCL5) ([5]; listed as Bay11): almost completely blocked; also recorded: completely suppressed

Compound: denosumab
- HER2 induction by osteocyte co-cultures [14]: partially blocked
- HER2 induction by osteocyte co-cultures ([14]; listed as Denosumab): able to suppress

Compound: Stat3 Inhibitor VII
- secretion of all three cytokines (IL6, IL8, CCL5) [5]: only partially inhibited
- reduced the levels of these cytokines [5]: 50%
